Data reported in US20240148821A1, “PHARMACEUTICAL USE OF CYCLIC PEPTIDE COMPOUND” (CHUGAI SEIYAKU KABUSHIKI KAISHA, priority 2021, published 2024).
Numbered stars: 1 amine (or outer) side, 2 acyl side, 3 side chain; on linkers, the order of the positions; unused ones are H or OH. Bridge positions count the residues as written; N and C are the ends. Square brackets hold non-standard residues; d marks the D form. Peptide text beside a SMILES is read from it. * marks the point of attachment. hPhe(3,5-F2-4-CF3) = N[C@@H](CCc1cc(F)c(C(F)(F)F)c(F)c1)C(=O)O; hPhe(3-Cl-4-CF3) = N[C@@H](CCc1ccc(C(F)(F)F)c(Cl)c1)C(=O)O; hPhe(3-F,4-CF3) = N[C@@H](CCc1ccc(C(F)(F)F)c(F)c1)C(=O)O; NMePhe(4-CF3) = CN[C@@H](Cc1ccc(C(F)(F)F)cc1)C(=O)O; X18 = O=C([C@H](CCc1ccc(C(F)(F)F)cn1)N[*:1])[*:2]; NMePhe(4-Me) = CN[C@@H](Cc1ccc(C)cc1)C(=O)O; NMeAla(cPent) = CN[C@@H](CC1CCCC1)C(=O)O; NMeGly(cPent) = CN[C@H](C(=O)O)C1CCCC1; NMe3Pal = CN[C@@H](Cc1cccnc1)C(=O)O; NMeCha = CN[C@@H](CC1CCCCC1)C(=O)O; Hyp = O=C(O)[C@@H]1C[C@@H](O)CN1; NMeChg = CN[C@H](C(=O)O)C1CCCCC1; NMeI = CC[C@H](C)[C@H](NC)C(=O)O; NMeD = CN[C@@H](CC(=O)O)C(=O)O; CH2CONHtBu = CC(C)(C)NC(=O)C*; NMeL = CN[C@@H](CC(C)C)C(=O)O; NMeNva = CCC[C@H](NC)C(=O)O; d(β3hA) = C[C@@H](N)CC(=O)O; NMeS = CN[C@@H](CO)C(=O)O; Morpholide = C1CN(*)CCO1; NMeA = CN[C@@H](C)C(=O)O; Piperidide = C1CCN(*)CC1; Pyrrolidide = C1CCN(*)C1; Ac5c = NC1(C(=O)O)CCCC1; Aze = O=C(O)[C@@H]1CCN1; Aib = CC(C)(N)C(=O)O; Isopentyl = CC(C)CC*; NEtG = CCNCC(=O)O; Sar = CNCC(=O)O

How the values were obtained:
[1] = target: protein-protein interaction between Kras and SOS1 (biotin-tagged human Kras loaded with GDP, His-tagged human SOS1) (Homo sapiens (Human), UniProt P01116, G12D); assay: Protein-protein interaction inhibition between Kras and SOS1 (KrasG12D-SOS PPI) using AlphaScreen; format: biochemical; conditions: AlphaScreen; biotin-tagged human Kras loaded with GDP, His-tagged human SOS1; read-out: KRAS G12D-SOS PPI IC50;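 note: kras produced in E. coli, Ni-coupled donor beads and streptavidin acceptor beads, excitation 680 nm with emission detected at 520–620 nm via singlet oxygen transfer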
[2] = test system: Human pancreatic cancer cell line AsPC-1 (G12D mutation Kras); assay: AsPC-1 cell growth inhibition (AsPC-1 CGI); format: cell-based; conditions: read-out: AsPC-1 cell growth inhibition, 50% growth inhibitory concentration (IC50 value); 96 hours, CellTiter-Glo, values classified in ranges
Description: Test compounds were serially dilated with dimethyl sulfoxide, and 200 nL was then dispensed to a U-bottom 96-well plate using Labcyte Echo. […] The cell suspension was dispensed to a. plate containing a test compound at 100 μL per well and incubated at 37° C. in a 5% carbon dioxide gas incubator. 96 hours later, 80 μL of CellTiter-Glo (Promega) was added to each well and fluorescence was measured.

Compound	IC50 [1] [nM]	IC50 [2] [nM]
CC[C@H](C)[C@@H]1NC(=O)[C@H](CC(C)C)N(C)C(=O)C[C@@H](C(=O)N(C)C)N(C)C(=O)[C@H]([C@@H](C)CC)N(C)C(=O)C2(CCCC2)NC(=O)[C@@H]2CCCN2C(=O)[C@H](CCc2ccc(C(F)(F)F)c(F)c2)NC(=O)CN(C)C(=O)[C@H](C2CCCC2)N(C)C(=O)[C@@H]2CCN2C(=O)[C@H](C)N(C)C1=O [Compound 555] ([NMeL]I[NMeA][Aze][NMeGly(cPent)][Sar][hPhe(3-F,4-CF3)]P[Ac5c][NMeI][NMeD]-NMe2; lactam N-11)	2.6	≤ 20
CCC[C@H]1C(=O)N[C@@H]([C@@H](C)CC)C(=O)N(C)CC(=O)N(C)CC(=O)N(C)[C@@H](CC2CCCC2)C(=O)N(C)CC(=O)N[C@@H](CCc2ccc(C(F)(F)F)c(Cl)c2)C(=O)N(C)[C@@H](Cc2cccnc2)C(=O)NC2(CCCC2)C(=O)N(C)[C@@H](C2CCCCC2)C(=O)N(C)[C@H](C(=O)N2CCOCC2)CC(=O)N1C [Compound 1937] ([NMeNva]I[Sar][Sar][NMeAla(cPent)][Sar][hPhe(3-Cl-4-CF3)][NMe3Pal][Ac5c][NMeChg][NMeD]-Morpholide; lactam N-11)	3.1	> 500
CC[C@H](C)[C@@H]1NC(=O)[C@H](CC2CCCC2)N(C)C(=O)C[C@@H](C(=O)N2CCCC2)N(C)C(=O)[C@H]([C@@H](C)CC)N(C)C(=O)C2(CCCC2)NC(=O)[C@@H]2CCCN2C(=O)[C@H](CCc2ccc(C(F)(F)F)c(Cl)c2)NC(=O)CN(C)C(=O)[C@H](Cc2ccc(C(F)(F)F)cc2)N(C)C(=O)[C@@H]2CCN2C(=O)[C@H](C)NC1=O [Compound 1320] ([NMeAla(cPent)]IA[Aze][NMePhe(4-CF3)][Sar][hPhe(3-Cl-4-CF3)]P[Ac5c][NMeI][NMeD]-Pyrrolidide; lactam N-11)	1.4	≤ 20
CCO[C@@H]1C[C@H]2C(=O)NC3(CCCC3)C(=O)N(C)[C@@H](C3CCCCC3)C(=O)N(C)[C@H](C(=O)N3CCOCC3)CC(=O)N(C)[C@@H](CC(C)C)C(=O)N[C@@H]([C@@H](C)CC)C(=O)N(C)CC(=O)N(C)CC(=O)N(C)[C@@H](CC3CCCCC3)C(=O)N(C)CC(=O)N[C@@H](CCc3ccc(C(F)(F)F)c(Cl)c3)C(=O)N2C1 [Compound 1990] ([NMeL]I[Sar][Sar][NMeCha][Sar][hPhe(3-Cl-4-CF3)][Hyp](Et)[Ac5c][NMeChg][NMeD]-Morpholide; lactam N-11)	0.43	≤ 20
CC[C@H](C)[C@@H]1NC(=O)[C@H](CC(C)C)N(C)C(=O)C[C@@H](C(=O)N2CCCCC2)N(C)C(=O)[C@H](C2CCCC2)N(C)C(=O)C2(CCCC2)NC(=O)[C@@H]2CCCN2C(=O)[C@H](CCc2ccc(C(F)(F)F)cn2)NC(=O)CN(C)C(=O)[C@H](CC2CCCCC2)N(C)C(=O)[C@@H]2CCN2C(=O)[C@H](C)N(C)C1=O [Compound 2069] ([NMeL]I[NMeA][Aze][NMeCha][Sar][X18]P[Ac5c][NMeGly(cPent)][NMeD]-Piperidide; lactam N-11 (inferred); C-terminus assumed)	78	> 500
CC[C@H](C)[C@@H]1NC(=O)[C@H](C)N(C)C(=O)C[C@@H](C)NC(=O)[C@H](C2CCCC2)N(C)C(=O)C2(CCCC2)NC(=O)[C@@H]2CCCN2C(=O)[C@H](CCc2ccc(C(F)(F)F)c(Cl)c2)NC(=O)CN(C)C(=O)[C@H](CC2CCCCC2)N(C)C(=O)[C@@H]2CCN2C(=O)[C@H](C)N(C)C1=O [Compound 1491] (cyclo([Ac5c][NMeGly(cPent)][d(β3hA)][NMeA]I[NMeA][Aze][NMeCha][Sar][hPhe(3-Cl-4-CF3)]P))	3.7	> 500
CCO[C@@H]1C[C@H]2C(=O)NC3(CCCC3)C(=O)N(C)[C@@H](C3CCCCC3)C(=O)N(C)[C@H](C(=O)N3CCOCC3)CC(=O)N(C)[C@@H](CC(C)C)C(=O)N[C@@H]([C@@H](C)CC)C(=O)N(C)CC(=O)N(C)CC(=O)N(C)[C@@H](CC3CCCCC3)C(=O)N(C)CC(=O)N[C@@H](CCc3cc(F)c(C(F)(F)F)c(F)c3)C(=O)N2C1 [Compound 1290] ([NMeL]I[Sar][Sar][NMeCha][Sar][hPhe(3,5-F2-4-CF3)][Hyp](Et)[Ac5c][NMeChg][NMeD]-Morpholide; lactam N-11)	0.63	≤ 20
CC[C@H](C)[C@@H]1NC(=O)[C@H](CC(C)C)N(C)C(=O)C[C@@H](C(=O)N(C)C)N(C)C(=O)[C@H](C2CCCC2)N(C)C(=O)C2(CCCC2)NC(=O)[C@@H]2CCCN2C(=O)[C@H](CCc2cc(F)c(C(F)(F)F)c(F)c2)NC(=O)CN(C)C(=O)[C@H](Cc2ccc(C)cc2)N(C)C(=O)[C@@H]2CCN2C(=O)[C@H](C)N(C)C1=O [Compound 965] ([NMeL]I[NMeA][Aze][NMePhe(4-Me)][Sar][hPhe(3,5-F2-4-CF3)]P[Ac5c][NMeGly(cPent)][NMeD]-NMe2; lactam N-11)	0.86	≤ 20
CC[C@H](C)[C@@H]1NC(=O)[C@H](COCC(=O)NC(C)(C)C)N(C)C(=O)C[C@@H](C)NC(=O)[C@H](CC(C)C)N(C)C(=O)C(C)(C)NC(=O)[C@H](CC(C)C)N(C)C(=O)[C@H](CCc2ccc(C(F)(F)F)c(Cl)c2)NC(=O)CN(C)C(=O)[C@H](COCCC(C)C)N(C)C(=O)CN(C)C(=O)CN(CC)C1=O [Compound 1495] (cyclo([Aib][NMeL][d(β3hA)][NMeS](CH2CONHtBu)I[NEtG][Sar][NMeS](Isopentyl)[Sar][hPhe(3-Cl-4-CF3)][NMeL]))	120	> 500
